Reference: patent US20150368248A1, “2-SUBSTITUTED-6-BIARYLMETHYLAMINO-9-CYCLOPENTYL-9H-PURINE DERIVATIVES, USE THEREOF AS MEDICAMENTS, AND PHARMACEUTICAL COMPOSITIONS” (UNIVERZITA PALACKEHO V OLOMOUCI, priority 2013, published 2015)

Tests used:
Hep3B = assay: MTT cytotoxicity assay (Example 30); type: cell-based, human; conditions: Homo sapiens, Hep3B, 72 h; MTT, three days after drug addition; read-out: Inhibitory concentration IC50, Hep3B
Procedure: (§1) Cytotoxicity of the compounds is the major property determining their anticancer effect in vivo. One of the parameters used, as the basis for cytotoxicity assays, is the metabolic activity of viable cells.
(§2) We have been using the following cell lines: HUH-7 and PLC/PRF/5 cell lines were maintained in DMEM supplemented with 10% fetal bovine serum, penicillin (100 U/ml) and streptomycin (100 μg/ml). […] HepG2 cell line was maintained in EMEM supplemented with 10% fetal bovine serum, sodium pyruvate (0.11 g/1), penicillin (100 U/ml) and streptomycin (100 μg/ml). All cell lines were cultivated at 37° C. in 5% CO2. For cytotoxicity assays, 3000 cells (10000 cells in case of HepG2 cell line) were seeded into each well of 96 well plate and the next day tested compounds were added at various concentrations in triplicates. Three days after drug addition MTT stock solution (5 mg/ml) was added into each well and incubated for 4 h. After this incubation period, produced formazan was dissolved by DMSO and final absorbance was measured at 570 nm with Synergy H4 Hybrid Multi-Mode Microplate Reader.

HCC-1.1 (3sp) = assay: MTT cytotoxicity assay (Example 30); type: cell-based; conditions: Homo sapiens, 72 h; MTT, three days after drug addition; read-out: Inhibitory concentration IC50, 3sp
Procedure: as §1, §2

HCC-1.2 (3p) = assay: MTT cytotoxicity assay (Example 30); type: cell-based; conditions: Homo sapiens, HCC-1.2, 72 h; MTT, three days after drug addition; read-out: Inhibitory concentration IC50, 3p
Procedure: as §1, §2

HUH-7 = assay: MTT cytotoxicity assay (Example 30); type: cell-based; conditions: Homo sapiens, Huh-7, 72 h; MTT, three days after drug addition; read-out: Inhibitory concentration IC50, HUH-7
Procedure: as §1, §2

PLC/PRF/5 = assay: MTT cytotoxicity assay (Example 30); type: cell-based; conditions: Homo sapiens, PLC-PRF-5, 72 h; MTT, three days after drug addition; read-out: Inhibitory concentration IC50, PLC/PRF/5
Procedure: as §1, §2

HepG2 = assay: MTT cytotoxicity assay (Example 30); type: cell-based; conditions: Homo sapiens, HepG2, 72 h; MTT, three days after drug addition; read-out: Inhibitory concentration IC50, HepG2
From the text: Cytotoxicity of the compounds is the major property determining their anticancer effect in vivo. One of the parameters used, as the basis for cytotoxicity assays, is the metabolic activity of viable cells. For example, a microtiter assay, which uses (3-(4,5-Dimethylthiazol-2-yl)-2,5-diphenyltetrazolium bromide (MTT), is widely used to quantitate cell proliferation and cytotoxicity. For instance, this assay is used in drug screening programs and in chemosensitivity testing. Because only metabolically active living cells reduce MTT to correspond purple formazan dye, these assays detect viable cells exclusively. The quantity of reduced MTT corresponds to the number of vital cells in the culture.
We have been using the following cell lines: HUH-7 and PLC/PRF/5 cell lines were maintained in DMEM supplemented with 10% fetal bovine serum, penicillin (100 U/ml) and streptomycin (100 μg/ml). Unique HCC-1.2 (3p) and HCC-1.1 (3sp) cell lines (Zilj et al., 2009, Future Oncol, 5(8):1169-79) and Hep3B cells were cultivated in RPMI supplemented with 10% fetal bovine serum, penicillin (100 U/ml) and streptomycin (100 μg/ml). HepG2 cell line was maintained in EMEM supplemented with 10% fetal bovine serum, sodium pyruvate (0.11 g/1), penicillin (100 U/ml) and streptomycin (100 μg/ml). All cell lines were cultivated at 37° C. in 5% CO2. For cytotoxicity assays, 3000 cells (10000 cells in case of HepG2 cell line) were seeded into each well of 96 well plate and the next day tested compounds were added at various concentrations in triplicates. Three days after drug addition MTT stock solution (5 mg/ml) was added into each well and incubated for 4 h. After this incubation period, produced formazan was dissolved by DMSO and final absorbance was measured at 570 nm with Synergy H4 Hybrid Multi-Mode Microplate Reader.

[1] = system: p53-regulated transcription in Arn8 cells; assay: p53-dependent transcriptional activity, β-galactosidase reporter; type: cell-based; conditions: 24 h incubation
Procedure: Stronger anticancer activity of the compounds is enhanced by its positive impact on stability and activity of the tumour suppressor p53. To measure p53-dependent transcriptional activity, β-galactosidase activity was quantified in the melanoma cell line Arn8, which had been established using stable transfection of cells with a p53-responsive reporter construct pRGCAfoslacZ (Frebung et al., Cancer Res., 52, 1992-6976). Briefly, after 24 h incubation with the inhibitors the Arn8 cells were permeabilized with 0.3% Triton X-100 for 15 min and then 4-methylumbelliferon-β-D-galactopyranoside was added as a substrate to the final concentration of 80 μM. After 1 h the fluorescence of product 4-methylumbelliferon was measured at 355/460 nm (ex/em) with a Fluoroskan Ascent microplate reader (Labsystems). Data in Tab. 8 present that series of 2-substituted-6-biarylmethylamino-9-cyclopentyl-9H-purine derivatives show a dose-dependent activatory effect on p53-regulated transcription, with the maximum impact observed between 100 and 500 nM concentrations for most of prepared compounds (Tab. 8).

Structure (SMILES) | melting point | IC50 (Hep3B) | IC50 (HCC-1.1 (3sp)) | IC50 (HCC-1.2 (3p)) | IC50 (HUH-7) | IC50 (PLC/PRF/5) | IC50 (HepG2) | Concentration of maximum activation [1]
NC1CCC(Nc2nc(NCc3ccc(-c4cccs4)cc3)c3ncn(C4CCCC4)c3n2)CC1 (stereo not drawn) [BP2, N^2-(4-amino-cyclohexyl)-9-cyclopentyl-N^6-(4-thiophen-2-yl-benzyl)-9H-purine-2,6-diamine] | 225 to 226 °C | 460 nM | 466 nM | 317 nM | 319 nM | 105 nM | 444 nM | 930 nM
NC1CCC(Nc2nc(NCc3ccc(-c4ccco4)cc3)c3ncn(C4CCCC4)c3n2)CC1 (stereo not drawn) [BP4, N^2-(4-amino-cyclohexyl)-9-cyclopentyl-N^6-(4-furan-2-yl-benzyl)-9H-purine-2,6-diamine] | 157 to 159 °C | 708 nM | 813 nM | 802 nM | 355 nM | 106 nM | 389 nM | 700 nM
NC1CCC(Nc2nc(NCc3ccc(-c4ccsc4)cc3)c3ncn(C4CCCC4)c3n2)CC1 (stereo not drawn) [BP5, N^2-(4-amino-cyclohexyl)-9-cyclopentyl-N^6-(4-thiophen-3-yl-benzyl)-9H-purine-2,6-diamine] | 114 to 118 °C | 405 nM | 454 nM | 420 nM | 231 nM | 60 nM | 247 nM | 961 nM
NC1CCC(Nc2nc(NCc3ccc(-c4cccc(F)c4)cc3)c3ncn(C4CCCC4)c3n2)CC1 (stereo not drawn) [BP12, N^2-(4-amino-cyclohexyl)-9-cyclopentyl-N^6-(3′-fluoro-biphenyl-4-ylmethyl)-9H-purine-2,6-diamine] | 146 to 148 °C | 418 nM | 492 nM | 288 nM | 199 nM | 77 nM | 248 nM | 986 nM
NC1CCC(Nc2nc(NCc3ccc(-c4ccoc4)cc3)c3ncn(C4CCCC4)c3n2)CC1 (stereo not drawn) [BP13, N^2-(4-amino-cyclohexyl)-9-cyclopentyl-N^6-(4-furan-3-yl-benzyl)-9H-purine-2,6-diamine] | 154 to 156 °C | 518 nM | 613 nM | 602 nM | 339 nM | 76 nM | 256 nM | 970 nM
NC1CCC(Nc2nc(NCc3ccc(-c4ccco4)nc3)c3ncn(C4CCCC4)c3n2)CC1 (stereo not drawn) [BP14, N^2-(4-amino-cyclohexyl)-9-cyclopentyl-N^6-(6-furan-2-yl-pyridin-3-ylmethyl)-9H-purine-2,6-diamine] | – | 58 nM | 513 nM | 410 nM | 373 nM | 7 nM | 211 nM | 137 nM

The next lines start with results.

melting point | Structure (SMILES) | IC50 (Hep3B) | IC50 (HCC-1.1 (3sp)) | IC50 (HCC-1.2 (3p)) | IC50 (HUH-7) | IC50 (PLC/PRF/5) | IC50 (HepG2) | Concentration of maximum activation [1]
178 to 180 °C | COc1ccccc1-c1ccc(CNc2nc(NC3CCC(N)CC3)nc3c2ncn3C2CCCC2)cc1 (stereo not drawn) [BP16, N^2-(4-amino-cyclohexyl)-9-cyclopentyl-N^6-(2′-methoxy-biphenyl-4-ylmethyl)-9H-purine-2,6-diamine] | 532 nM | 767 nM | 580 nM | 363 nM | 129 nM | 937 nM | 943 nM
184 to 186 °C | COc1ccccc1-c1ccc(CNc2nc(NC3CCC(N)CC3)nc3c2ncn3C2CCCC2)cn1 (stereo not drawn) [BP18, N^2-(4-amino-cyclohexyl)-9-cyclopentyl-N^6-[6-(2-methoxy-phenyl)-pyridin-3-ylmethyl]-9H-purine-2,6-diamine] | 233 nM | 791 nM | 791 nM | 618 nM | 22 nM | 417 nM | 510 nM
121 to 122 °C | NC1CCC(Nc2nc(NCc3ccc(-c4cccc(F)c4)nc3)c3ncn(C4CCCC4)c3n2)CC1 (stereo not drawn) [BP19, N^2-(4-amino-cyclohexyl)-9-cyclopentyl-N^6-[6-(3-fluoro-phenyl)-pyridin-3-ylmethyl]-9H-purine-2,6-diamine] | 85 nM | 410 nM | 191 nM | 281 nM | 9 nM | 111 nM | 167 nM
202 to 203 °C | NC1CCC(Nc2nc(NCc3ccc(-c4ccccc4O)nc3)c3ncn(C4CCCC4)c3n2)CC1 (stereo not drawn) [BP20, N^2-(4-amino-cyclohexyl)-9-cyclopentyl-N^6-[6-(2-hydroxy-phenyl)-pyridin-3-ylmethyl]-9H-purine-2,6-diamine] | 32 nM | 197 nM | 132 nM | 182 nM | 7 nM | 68 nM | 150 nM
164 to 166 °C | OC1CCC(Nc2nc(NCc3ccc(-c4ccco4)nc3)c3ncn(C4CCCC4)c3n2)CC1 (stereo not drawn) [BP21, 4-{9-cyclopentyl-6-[(6-furan-2-yl-pyridin-3-ylmethyl)-amino]-9H-purine-2-ylamino}-cyklohexanol] | 487 nM | 408 nM | 167 nM | 155 nM | 46 nM | 38 nM | 918 nM
173 to 175 °C | Nc1ccccc1-c1ccc(CNc2nc(NC3CCC(N)CC3)nc3c2ncn3C2CCCC2)cn1 (stereo not drawn) [BP22, N^2-(4-amino-cyclohexyl)-9-cyclopentyl-N^6-[6-(2-amino-phenyl)-pyridin-3-ylmethyl]-9H-purine-2,6-diamine] | 487 nM | 516 nM | 436 nM | 642 nM | 280 nM | > 1000 nM | 373 nM
186 to 187 °C | NC1CCC(Nc2nc(NCc3ccc(-n4cccn4)cc3)c3ncn(C4CCCC4)c3n2)CC1 (stereo not drawn) [BP24, N^2-(4-amino-cyclohexyl)-9-cyclopentyl-N^6-(4-pyrazol-1-yl-benzyl)-9H-purine-2,6-diamine] | 115 nM | 339 nM | 169 nM | 177 nM | 12 nM | 142 nM | 260 nM
151 to 153 °C | NC1CCC(Nc2nc(NCc3ccc(-c4cccs4)nc3)c3ncn(C4CCCC4)c3n2)CC1 (stereo not drawn) [BP30, N^2-(4-amino-cyclohexyl)-9-cyclopentyl-N^6-(6-thiophen-2-yl-pyridin-3-ylmethyl)-9H-purine-2,6-diamine] | 77 nM | 476 nM | 205 nM | 184 nM | 15 nM | 206 nM | 120 nM
